Experimental data as given in paper PMC6089501 (Journal of Medicinal Chemistry, 2018).
≈ marks a conversion by molar mass, not a printed value. Where “and” joins values, the source holds several entries; their conditions need not be identical. Identical values can stand only once. Like-named read-outs stand apart in the source and are kept apart here.

Legend:
in vivo [1] = settings: female, C57 Black, mouse; for AUC: iv, 3 mg/kg; for bioavailability: po, 10 mg/kg
Protocol: (§1) Test compound was dosed as a bolus solution intravenously at 3 mg of free base/kilogram (dose volume 5 mL/kg; dose vehicle Saline or 10% DMSO; 40% PEG400; 50% saline) to female C57 Black (n = 3) or dosed orally by gavage as a solution at 10 mg of free base/kilogram (dose volume 10 mL/kg; dose vehicle 10% DMSO; 40% PEG400; 50% distilled water) to female C57 Black (n = 3/dose level). Blood samples were taken from each mouse tail vein at predetermined time points postdose, mixed with two volumes of distilled water, and stored frozen until UPLC/MS/MS analysis. Pharmacokinetic parameters were derived from the blood concentration time curve using PK Solutions software v 2.0 (Summit Research Services, USA).

[2] = microsomes
[3] = tested on: Madin Darby Canine Kidney (MDCK); settings: for P-glycoprotein (P-gp) efflux (in words) / permeability (in words): MDCK-MDR1; for P-gp Efflux B→ A/A → B: dog, MDCK
CYP 1A2 = molecular target: T1, CYP 1A2 (Homo sapiens, UniProt P05177); assay: CYP inhibition 1A2
T1 sequence (P05177 1-516): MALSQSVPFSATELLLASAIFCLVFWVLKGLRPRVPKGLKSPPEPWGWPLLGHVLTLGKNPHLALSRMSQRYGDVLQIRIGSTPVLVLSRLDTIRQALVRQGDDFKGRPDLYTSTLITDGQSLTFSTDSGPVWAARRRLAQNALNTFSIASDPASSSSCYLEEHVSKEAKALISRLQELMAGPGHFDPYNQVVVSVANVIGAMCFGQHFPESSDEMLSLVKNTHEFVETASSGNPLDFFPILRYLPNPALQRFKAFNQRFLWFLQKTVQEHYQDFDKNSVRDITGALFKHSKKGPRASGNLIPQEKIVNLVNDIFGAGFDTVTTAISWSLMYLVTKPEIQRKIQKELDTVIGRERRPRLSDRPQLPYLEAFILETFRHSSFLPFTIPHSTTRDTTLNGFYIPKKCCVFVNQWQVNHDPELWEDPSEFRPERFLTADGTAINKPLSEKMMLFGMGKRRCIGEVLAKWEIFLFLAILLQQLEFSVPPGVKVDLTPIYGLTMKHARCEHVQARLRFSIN

in vitro [4] = settings: African green monkey, Vero cytotoxicity
Protocol: (§2) Compounds were solubilized in DMSO and assayed as a 10-point 3-fold serial dilution. Compounds were incubated with cells for 2 days at 37 °C, 5% CO2. CellTiter-Glo Reagent (Promega) was added and relative luminescent units (RLU) measured.

CYP 2D6 = CYP 2D6 (Homo sapiens, UniProt P10635); assay: biochemical
Sequence of CYP 2D6 (P10635 whole entry): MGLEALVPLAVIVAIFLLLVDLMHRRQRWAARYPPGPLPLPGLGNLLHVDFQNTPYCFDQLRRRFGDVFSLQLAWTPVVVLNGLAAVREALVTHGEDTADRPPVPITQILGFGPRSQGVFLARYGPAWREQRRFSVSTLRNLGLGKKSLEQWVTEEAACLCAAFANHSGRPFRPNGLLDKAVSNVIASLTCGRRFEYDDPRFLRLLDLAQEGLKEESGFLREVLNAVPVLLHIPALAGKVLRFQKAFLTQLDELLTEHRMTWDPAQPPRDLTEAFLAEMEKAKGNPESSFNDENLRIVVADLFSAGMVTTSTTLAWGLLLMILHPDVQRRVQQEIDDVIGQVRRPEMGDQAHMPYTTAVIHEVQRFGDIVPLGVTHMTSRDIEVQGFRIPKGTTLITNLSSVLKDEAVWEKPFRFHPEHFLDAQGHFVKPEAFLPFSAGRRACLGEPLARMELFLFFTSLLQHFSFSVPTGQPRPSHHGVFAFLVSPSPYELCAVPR

in vitro [5] = settings: dog, MDCK-MDR1
[6] = female, C57 Black, mouse, in vivo, iv, 3 mg/kg
Protocol: as §1

Vero cells [7] = assay: cells; settings: Chlorocebus sabaeus, read-out: VERO IC50
Protocol: as §2

CYP2C19 = CYP2C19 (Homo sapiens, UniProt P33261); assay: in vitro
Sequence of CYP2C19 (P33261 whole entry): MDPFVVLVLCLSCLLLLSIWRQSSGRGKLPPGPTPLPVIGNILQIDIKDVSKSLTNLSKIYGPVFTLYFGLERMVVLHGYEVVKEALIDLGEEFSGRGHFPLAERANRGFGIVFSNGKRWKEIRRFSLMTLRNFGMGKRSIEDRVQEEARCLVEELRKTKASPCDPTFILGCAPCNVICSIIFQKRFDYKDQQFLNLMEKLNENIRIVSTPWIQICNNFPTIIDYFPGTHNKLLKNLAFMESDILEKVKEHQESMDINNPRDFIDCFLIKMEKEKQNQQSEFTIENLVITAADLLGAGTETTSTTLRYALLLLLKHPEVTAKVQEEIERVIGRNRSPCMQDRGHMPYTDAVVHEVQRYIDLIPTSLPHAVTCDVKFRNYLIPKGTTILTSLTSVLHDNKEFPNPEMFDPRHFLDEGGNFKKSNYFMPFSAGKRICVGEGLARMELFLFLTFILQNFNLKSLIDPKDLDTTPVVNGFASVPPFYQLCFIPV

CYP2C9 = CYP2C9 (Homo sapiens, UniProt P11712); assay: in vitro
Sequence of CYP2C9 (P11712 whole entry): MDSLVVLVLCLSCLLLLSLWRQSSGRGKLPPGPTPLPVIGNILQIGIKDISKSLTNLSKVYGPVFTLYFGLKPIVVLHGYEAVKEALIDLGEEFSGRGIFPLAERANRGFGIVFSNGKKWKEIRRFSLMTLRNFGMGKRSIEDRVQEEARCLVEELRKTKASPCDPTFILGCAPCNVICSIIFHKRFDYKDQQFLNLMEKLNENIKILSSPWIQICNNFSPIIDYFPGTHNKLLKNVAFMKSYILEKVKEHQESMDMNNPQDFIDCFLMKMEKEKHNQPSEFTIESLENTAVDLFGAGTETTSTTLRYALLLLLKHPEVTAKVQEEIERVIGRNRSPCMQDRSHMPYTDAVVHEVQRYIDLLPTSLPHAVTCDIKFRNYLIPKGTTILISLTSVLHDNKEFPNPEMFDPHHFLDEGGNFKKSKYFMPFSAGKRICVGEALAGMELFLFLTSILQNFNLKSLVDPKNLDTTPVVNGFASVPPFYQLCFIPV

[8] = for Cli mouse / scaled Clpre: female, CD1, mouse, pH 7.4
M. tuberculosis H37Rv [9] = assay: microbe, parasite or virus in culture; type: cell-based, Mycobacterium tuberculosis; settings: for MIC / MIC90 / IC90: Mycobacterium tuberculosis, H37RV; for MIC90: read-out: MIC (MIC90); for IC90: read-out: TB-IC90_OD GEOM_MEAN
physchem [10] = assay: physchem
physchem [11] = assay: physchem; remark: listed apart in the source
physchem [12] = assay: physchem; remark: listed apart in the source
Protocol: (§3) Samples are stirred for 20 h and filtered through a 0.7 μm GF filter. The filtrate was analyzed by HPLC assay for concentration against DMSO standard curve.[40]

Vero cells [13] = settings: read-out: VERO IC50
Protocol: as §2

M. tuberculosis H37Rv [14] = tested on: M. tuberculosis H37Rv; parameters: species or system Mycobacterium tuberculosis; settings: in vivo
[15] = C57 Black, mouse, in vivo, po
Protocol: Analysis of 37 in Mouse Blood samples (10mg/kg PO and 3mg/kg IV)

[16] = Sprague-Dawley, rat, in vivo
Protocol: (§4) Test compound was dosed orally by gavage at 5 mg of free base/kilogram (dose volume 5 mL/kg; dose vehicle 1.0% carboxy methyl cellulose, CMC) to male Sprague–Dawley Rats (n = 1 per time point). At predetermined time points, blood samples (100 μL) were taken from the hepatic portal vein into a tube containing EDTA. Immediately afterward, the remaining blood was taken by cardiac puncture into a separate tube containing EDTA to determine the concentration of compound reaching the systemic circulation. The blood was mixed with two volumes of distilled water and stored frozen until UPLC/MS/MS analysis. Pharmacokinetic parameters were derived from the blood concentration time curve using PK Solutions software v 2.0 (Summit Research Services, USA).

in vivo [17] = settings: Sprague-Dawley, rat; for AUC(0-t) at 24 h: AUC 0–24
Protocol: as §4

[18] = pH 2/6/7.4
Protocol: as §3

M. tuberculosis H37Rv [19] = type: cell-based, Mycobacterium tuberculosis

NC(=O)c1sc(N2CCOCC2)cc1OCCc1ccccc1 [Compound 1, 5-Morpholino-3-phenethoxythiophene-2-carboxamide]
AUC (in vivo [1]): 4830 ng·h/mL | bioavailability (in vivo [1]): 0.5% | Microsomal clearance, Human [2]: Human = 3.5 mL·min^−1·g^−1 | P-glycoprotein (P-gp) efflux (in words) [3]: no likely P-glycoprotein (P-gp) efflux issues | permeability (in words) [3]: good permeability | P-gp Efflux B→ A/A → B [3]: 0.8 | IC50 (CYP 1A2): > 10 µM | IC50 (in vitro [4]): > 100 µM | IC50 (CYP 2D6): 10 µM | Papp A→B (in vitro [5]): 45 ×10⁻⁶ cm/s | Papp B→A (in vitro [5]): 37 ×10⁻⁶ cm/s | CLB [6]: 10 mL/min/kg | T1/2 [6]: 42 min | IC50 (Vero cells [7]): > 100 µM | IC50 (CYP2C19): 1.26 µM | IC50 (CYP2C9): 7.94 µM | Cli mouse [8]: 19 mL.min^–1.g^–1 | scaled Clpre [8]: 81 mL/min/kg | CL mouse MEAN ([8]; mouse, microsomes): 18.63 mL/min/g | Microsomal clearance, Mouse ([8]; mouse, microsomes): Mouse = 19 mL·min^−1·g^−1 | in vitro mouse Clint ([8]; mouse, microsomes): 19 mL/min/g | MIC (M. tuberculosis H37Rv [9]; read-out: H37Rv MIC): 0.13 µg/mL | MIC90 (M. tuberculosis H37Rv [9]): 0.72 µM (≈ 0.239 µg/mL) | MIC (M. tuberculosis H37Rv [9]; read-out: MIC WT): 1.3 µM | IC90 (M. tuberculosis H37Rv [9]): 0.608 µM | MIC (H37RvLP) (M. tuberculosis H37Rv [9]; n = 14): 0.72 ± 0.30 (n = 14)

NC(=O)c1sc(CN2CCOCC2)cc1OCCc1ccccc1 [Compound 18, 5-(Morpholinomethyl)-3-(2-phenylethoxy)thiophene-2-carboxamide]
P-glycoprotein (P-gp) efflux (in words) [3]: no likely P-glycoprotein (P-gp) efflux issues | permeability (in words) [3]: good permeability | P-gp Efflux B→ A/A → B [3]: 0.8 | chromatographic logD (physchem [10]): 1.71 | Papp A→B (in vitro [5]): 62 ×10⁻⁶ cm/s | Papp B→A (in vitro [5]): 53 ×10⁻⁶ cm/s | IC50 (Vero cells [7]): > 100 µM | solubility (physchem [11]; pH 2.4): 1700 µg/mL (≈ 4910 µM) | Cli mouse [8]: 3 mL.min^–1.g^–1 | CL mouse MEAN ([8]; mouse, microsomes): 3.219 mL/min/g | solubility (physchem [12]; pH 2): 700 µg/mL (≈ 2020 µM) | solubility (physchem [12]; pH 7.4): 300 µg/mL (≈ 866 µM) | antitubercular whole cell activity (in words) (M. tuberculosis H37Rv [9]): not active | MIC90 (M. tuberculosis H37Rv [9]): > 20 µM | IC90 (M. tuberculosis H37Rv [9]): > 20 µM

CC(=O)c1sc(N2CCOCC2)cc1OCCc1ccccc1 [Compound 20, 1-[5-Morpholino-3-(2-phenylethoxy)-2-thienyl]ethanone]
chromatographic logD (physchem [10]): 2.78 | IC50 (Vero cells [7]): 84 µM | IC50 (Vero cells [13]): 82.2 µM | solubility (physchem [11]; pH 2.4): 400 µg/mL (≈ 1210 µM) | Cli mouse [8]: 41 mL.min^–1.g^–1 | CL mouse MEAN ([8]; mouse, microsomes): 41.42 mL/min/g | solubility (physchem [12]; pH 2): 600 µg/mL (≈ 1810 µM) | solubility (physchem [12]; pH 7.4): 30 µg/mL (≈ 90.5 µM) | MIC90 (M. tuberculosis H37Rv [9]): 0.42 µM (≈ 0.139 µg/mL) | IC90 (M. tuberculosis H37Rv [9]): 0.424 µM

NC(=O)c1sc(N2CCOCC2)cc1OCCc1ccc(OC(F)(F)F)cc1 [Compound 37, 5-Morpholino-3-[2-[4-(trifluoromethoxy)phenyl]ethoxy]thiophene-2-carboxamide]
growth of the bacteria in the lungs compared to untreated mice (in words) (M. tuberculosis H37Rv [14]): able to inhibit the growth of the bacteria in the lungs | log CFUs per mouse (lungs), individual mice (M. tuberculosis H37Rv [14]): 6.1 log CFU and 5.8 log CFU | log CFUs per mouse (lungs), mean (M. tuberculosis H37Rv [14]): 6.0 log CFU | log reduction of colony forming unit (CFU) counts in the lungs (M. tuberculosis H37Rv [14]; po, 100 mg/kg): 0.8 log | AUC (in vivo [1]): 1730 ng·h/mL | bioavailability (in vivo [1]): 18% | % Peak Area, metabolite A N or S-oxide [15]: 3% | % Peak Area, metabolite B De-ethylation + oxidation [15]: 3% | % Peak Area, metabolite C De-ethylation [15]: 2% | % Peak Area, metabolite D Oxidation (x3) [15]: 6% | % Peak Area, metabolite E Hydroxylation [15]: 27% | P-glycoprotein (P-gp) efflux (in words) [3]: no likely P-glycoprotein (P-gp) efflux issues | permeability (in words) [3]: good permeability | P-gp Efflux B→ A/A → B [3]: 0.8 | chromatographic logD (physchem [10]): 2.68 | Clb ([16]; iv, 1 mg/kg): 30 | T1/2 ([16]; iv, 1 mg/kg): 30 min | Cmax ([16]; male, po, 5 mg/kg): 140 ng/mL | F ([16]; male, po, 5 mg/kg): 12% | AUC 0–24 ([16]; male, po, 5 mg/kg, 24 h): 19 | Papp A→B (in vitro [5]): 25 ×10⁻⁶ cm/s | Papp B→A (in vitro [5]): 20 ×10⁻⁶ cm/s | CLB [6]: 29 mL/min/kg | IC50 (Vero cells [7]): 39 µM | IC50 (Vero cells [13]): 37 µM | AUC(0-t) at 24 h (in vivo [17]; iv, 1 mg/kg): 550 ng·h/mL | Tmax (in vivo [17]; male, po, 5 mg/kg): 60 min | AUC(0-t) at 24 h (in vivo [17]; male, po, 5 mg/kg): 583 ng·h/mL | Cmax (in vivo [17]; male, po, 5 mg/kg, Cmax): 200 ng/mL | Cli mouse [8]: 8 mL.min^–1.g^–1 | scaled Clpre [8]: 76 mL/min/kg | CL mouse MEAN ([8]; mouse, microsomes): 8.159 mL/min/g | in vitro mouse Clint ([8]; mouse, microsomes): 8 mL/min/g | solubility (physchem [12]; pH 2): 2 µg/mL (≈ 4.8 µM) | solubility (physchem [12]; pH 6): 1 µg/mL (≈ 2.4 µM) | solubility (physchem [12]; pH 7.4): 1 µg/mL (≈ 2.4 µM) | solubility in HTSA (in words) [18]: poor solubility | MIC (M. tuberculosis H37Rv [9]; read-out: H37Rv MIC): 0.083 µg/mL | MIC90 (M. tuberculosis H37Rv [9]): 0.24 µM (≈ 0.0999 µg/mL) | MIC (M. tuberculosis H37Rv [9]; read-out: MIC WT): 0.24 µM | IC90 (M. tuberculosis H37Rv [9]): 0.217 µM

CC1(COc2cc(N3CCOCC3)sc2C(N)=O)COC1 [Compound 46, 3-((3-Methyloxetan-3-yl)methoxy)-5-morpholinothiophene-2-carboxamide]
bioavailability (in vivo [1]): 38% | P-glycoprotein (P-gp) efflux (in words) [3]: no likely P-glycoprotein (P-gp) efflux issues | permeability (in words) [3]: good permeability | P-gp Efflux B→ A/A → B [3]: 2 | chromatographic logD (physchem [10]): 0.707 | Papp A→B (in vitro [5]): 19 ×10⁻⁶ cm/s | Papp B→A (in vitro [5]): 35 ×10⁻⁶ cm/s | CLB [6]: 31 mL/min/kg | T1/2 [6]: 42 min | IC50 (Vero cells [7]): > 100 µM | Cli mouse [8]: 2.1 mL.min^–1.g^–1 | scaled Clpre [8]: 56 mL/min/kg | CL mouse MEAN ([8]; mouse, microsomes): 2.051 mL/min/g | in vitro mouse Clint ([8]; mouse, microsomes): 2.1 mL/min/g | antitubercular whole cell activity (in words) (M. tuberculosis H37Rv [9]): no measurable MIC activity | MIC (M. tuberculosis H37Rv [9]; read-out: H37Rv MIC): > 6.2 µg/mL | MIC90 (M. tuberculosis H37Rv [9]): > 20 µM

NC(=O)c1cc(N2CCOCC2)ccc1OCCc1ccccc1 [Compound 55, 5-Morpholino-2-(2-phenylethoxy)benzamide]
AUC (in vivo [1]): 1590 ng·h/mL | bioavailability (in vivo [1]): 5% | chromatographic logD (physchem [10]): 1.9 | CLB [6]: 32 mL/min/kg | T1/2 [6]: 72 min | IC50 (Vero cells [7]): > 100 µM | solubility (physchem [11]; pH 2.4): 1300 µg/mL (≈ 3980 µM) | solubility (physchem [11]; pH 6): 300 µg/mL (≈ 919 µM) | Cli mouse [8]: 3.8 mL.min^–1.g^–1 | scaled Clpre [8]: 68 mL/min/kg | CL mouse MEAN ([8]; mouse, microsomes): 3.79 mL/min/g | in vitro mouse Clint ([8]; mouse, microsomes): 4 mL/min/g | solubility (physchem [12]; pH 2): 600 µg/mL (≈ 1840 µM) | solubility (physchem [12]; pH 6): 300 µg/mL (≈ 919 µM) | solubility (physchem [12]; pH 7.4): 300 µg/mL (≈ 919 µM) | MIC (M. tuberculosis H37Rv [9]; read-out: H37Rv MIC): 1.9 µg/mL | MIC90 (M. tuberculosis H37Rv [9]): 5.7 µM (≈ 1.86 µg/mL)

CCc1nc2ccc(Cl)cn2c1C(=O)NCc1ccc(N2CCC(c3ccc(OC(F)(F)F)cc3)CC2)cc1 [Compound Q203]
ATP levels versus growth (OD590) (M. tuberculosis H37Rv [19]): depletion of ATP occurred at lower concentrations than required to inhibit growth

CO[C@H]1/C=C/O[C@@]2(C)Oc3c(C)c(O)c4c(O)c(c(/C=N/N5CCN(C)CC5)c(O)c4c3C2=O)NC(=O)/C(C)=C\C=C\[C@H](C)[C@H](O)[C@@H](C)[C@@H](O)[C@@H](C)[C@H](OC(C)=O)[C@@H]1C [rifampicin]
ATP levels versus growth (OD590) (M. tuberculosis H37Rv [19]): correlated with growth
